Assays:
Assay type in all cases: in vivo
[1] = test system: Ipomoea hederacea (IPOHE); experiment: Post-emergence Test (glasshouse, percentage damage to the plant); settings: post-emergence spray, 1000 g/ha unless otherwise stated, evaluated after 13 days
Method in brief: (§1)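 Sown pots; spray 1000 g/ha (unless stated) in acetone/water 50:50 + 0.5% Tween 20; glasshouse 24/16 °C, 14 h light, 65% RH; watered twice daily; % damage read at 13 days, scored 1–5.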

[2] = test system: Echinochloa crus-galli (ECHCG); experiment: as above; settings: post-emergence spray, 1000 g/ha unless otherwise stated, evaluated after 13 days
Method in brief: as §1

[3] = test system: Abutilon theophrasti (ABUTH); experiment: as above; settings: post-emergence spray, 1000 g/ha unless otherwise stated, evaluated after 13 days
Method in brief: as §1

[4] = test system: Amaranthus retoflexus (AMARE); experiment: as above; settings: post-emergence spray, 1000 g/ha unless otherwise stated, evaluated after 13 days
Method in brief: as §1

[5] = test system: Setaria faberi (SETFA); experiment: as above; settings: post-emergence spray, 1000 g/ha unless otherwise stated, evaluated after 13 days
Method in brief: as §1

[6] = test system: Zea mays (ZEAMX); experiment: as above; settings: post-emergence spray, 1000 g/ha unless otherwise stated, evaluated after 13 days
Method in brief: as §1

[7] = test system: Echinochloa crus-galli (ECHCG); experiment: Pre-emergence Test (glasshouse, percentage damage to the plant); settings: 1000 g/ha unless otherwise stated, five-point scale
[8] = test system: Ipomoea hederacea (IPOHE); experiment: as above; settings: 1000 g/ha unless otherwise stated, five-point scale
[9] = test system: Setaria faberi (SETFA); experiment: as above; settings: 1000 g/ha unless otherwise stated, five-point scale
[10] = test system: Amaranthus retoflexus (AMARE); experiment: as above; settings: 1000 g/ha unless otherwise stated, five-point scale
[11] = test system: Zea mays (ZEAMX); experiment: as above; settings: 1000 g/ha unless otherwise stated, five-point scale
[12] = test system: Abutilon theophrasti (ABUTH); experiment: as above; settings: 1000 g/ha unless otherwise stated, five-point scale

SMILES | Post-emergence Test IPOHE, percentage damage to the plant (five-point scale) [1] | Post-emergence Test ECHCG, percentage damage to the plant (five-point scale) [2] | Post-emergence Test ABUTH, percentage damage to the plant (five-point scale) [3] | Post-emergence Test AMARE, percentage damage to the plant (five-point scale) [4] | Post-emergence Test SETFA, percentage damage to the plant (five-point scale) [5] | Post-emergence Test ZEAMX, percentage damage to the plant (five-point scale) [6] | percentage damage to the plant, ECHCG [7] | percentage damage to the plant, IPOHE [8] | percentage damage to the plant, SETFA [9] | percentage damage to the plant, AMARE [10] | percentage damage to the plant, ZEAMX [11] | percentage damage to the plant, ABUTH [12]
CCn1c(C)c(-c2cc(Cl)cc(Cl)c2)c(=O)c(C(=O)O)c1-c1ccc(Cl)c(Cl)c1 [Compound 56, 2-(3,4-dichlorophenyl)-5-(3,5-dichlorophenyl)-1-ethyl-6-methyl-4-oxo-pyridine-3-carboxylic acid] | 1 (1=0-20%) | 1 (1=0-20%) | 1 (1=0-20%) | 1 (1=0-20%) | 1 (1=0-20%) | 1 (1=0-20%) | 1 (1=0-20%) | 1 (1=0-20%) | 1 (1=0-20%) | 1 (1=0-20%) | 1 (1=0-20%) | 1 (1=0-20%)
CCn1c(C)c(-c2ccc(Cl)c(C#N)c2)c(=O)c(C(=O)O)c1-c1ccc(Cl)c(Cl)c1 [Compound 57, 5-(4-chloro-3-cyano-phenyl)-2-(3,4-dichlorophenyl)-1-ethyl-6-methyl-4-oxo-pyridine-3-carboxylic acid] | 2 (2=21-40%) | 3 (3=41-60%) | 3 (3=41-60%) | 4 (4=61-80%) | 4 (4=61-80%) | 2 (2=21-40%) | 3 (3=41-60%) | 2 (2=21-40%) | 4 (4=61-80%) | 3 (3=41-60%) | 2 (2=21-40%) | 1 (1=0-20%)
CCn1c(C)c(-c2ccn(C)c(=O)c2)c(=O)c(C(=O)O)c1-c1ccc(Cl)c(Cl)c1 [Compound 58, 2-(3,4-dichlorophenyl)-1-ethyl-6-methyl-5-(1-methyl-2-oxo-4-pyridyl)-4-oxo-pyridine-3-carboxylic acid] | 1 (1=0-20%) | 1 (1=0-20%) | 1 (1=0-20%) | 1 (1=0-20%) | 1 (1=0-20%) | 1 (1=0-20%) | 1 (1=0-20%) | 1 (1=0-20%) | 1 (1=0-20%) | 1 (1=0-20%) | 1 (1=0-20%) | 1 (1=0-20%)
CCn1c(C)c(-c2cnc(F)c(F)c2)c(=O)c(C(=O)O)c1-c1ccc(Cl)c(Cl)c1 [Compound 59, 2-(3,4-dichlorophenyl)-5-(5,6-difluoro-3-pyridyl)-1-ethyl-6-methyl-4-oxo-pyridine-3-carboxylic acid] | 3 (3=41-60%) | 3 (3=41-60%) | 3 (3=41-60%) | 3 (3=41-60%) | 4 (4=61-80%) | 3 (3=41-60%) | 2 (2=21-40%) | 3 (3=41-60%) | 4 (4=61-80%) | 1 (1=0-20%) | 1 (1=0-20%) | 3 (3=41-60%)
CCn1c(C)c(-c2cnc3c(c2)OC(F)(F)O3)c(=O)c(C(=O)O)c1-c1ccc(Cl)c(Cl)c1 [Compound 60, 2-(3,4-dichlorophenyl)-5-(2,2-difluoro-[1,3]dioxolo[4,5-b]pyridin-6-yl)-1-ethyl-6-methyl-4-oxo-pyridine-3-carboxylic acid] | 2 (2=21-40%) | 3 (3=41-60%) | 2 (2=21-40%) | 2 (2=21-40%) | 4 (4=61-80%) | 1 (1=0-20%) | 2 (2=21-40%) | 2 (2=21-40%) | 4 (4=61-80%) | 2 (2=21-40%) | 1 (1=0-20%) | 3 (3=41-60%)
CCn1c(C)c(-c2cncc(OC)c2)c(=O)c(C(=O)O)c1-c1ccc(Cl)c(Cl)c1 [Compound 61, 2-(3,4-dichlorophenyl)-1-ethyl-5-(5-methoxy-3-pyridyl)-6-methyl-4-oxo-pyridine-3-carboxylic acid] | 1 (1=0-20%) | 1 (1=0-20%) | 2 (2=21-40%) | 1 (1=0-20%) | 3 (3=41-60%) | 1 (1=0-20%) | 1 (1=0-20%) | 1 (1=0-20%) | 4 (4=61-80%) | 1 (1=0-20%) | 1 (1=0-20%) | 2 (2=21-40%)
CCn1c(C)c(-c2cc(F)cc(Cl)c2)c(=O)c(C(=O)O)c1-c1ccc(Cl)c(Cl)c1 [Compound 62, 5-(3-chloro-5-fluoro-phenyl)-2-(3,4-dichlorophenyl)-1-ethyl-6-methyl-4-oxo-pyridine-3-carboxylic acid] | 2 (2=21-40%) | 1 (1=0-20%) | 2 (2=21-40%) | 1 (1=0-20%) | 1 (1=0-20%) | 1 (1=0-20%) | 1 (1=0-20%) | 1 (1=0-20%) | 2 (2=21-40%) | 1 (1=0-20%) | 1 (1=0-20%) | 1 (1=0-20%)
CCn1c(C)c(-c2ccc(Cl)s2)c(=O)c(C(=O)O)c1-c1ccc(Cl)c(Cl)c1 [Compound 63, 5-(5-chloro-2-thienyl)-2-(3,4-dichlorophenyl)-1-ethyl-6-methyl-4-oxo-pyridine-3-carboxylic acid] | 3 (3=41-60%) | 4 (4=61-80%) | 3 (3=41-60%) | 3 (3=41-60%) | 3 (3=41-60%) | 3 (3=41-60%) | 1 (1=0-20%) | 2 (2=21-40%) | 3 (3=41-60%) | 4 (4=61-80%) | 1 (1=0-20%) | 2 (2=21-40%)
CCn1c(C)c(-c2ccc(C(F)(F)F)c(Cl)c2)c(=O)c(C(=O)O)c1-c1ccc(Cl)c(Cl)c1 [Compound 64, 5-[3-chloro-4-(trifluoromethyl)phenyl]-2-(3,4-dichlorophenyl)-1-ethyl-6-methyl-4-oxo-pyridine-3-carboxylic acid] | 1 (1=0-20%) | 1 (1=0-20%) | 1 (1=0-20%) | 1 (1=0-20%) | 1 (1=0-20%) | 1 (1=0-20%) | 1 (1=0-20%) | 1 (1=0-20%) | 1 (1=0-20%) | 2 (2=21-40%) | 1 (1=0-20%) | 1 (1=0-20%)
